Data from PMC7852560 (Neuropsychopharmacology, 2020).

How the values were obtained:
CB1R [1] = molecular target: T1, CB1R (Homo sapiens, UniProt P21554); assay: cell-based; type: cell-based; conditions: hCB1R CHO cells, data not shown
Method: The cAMP BRET experiments were performed as previously described. Briefly, hCB1R HEK293 cells were transfected with 5 µg/10 cm dish of the CAMYEL biosensor using polyethylenimine. After 24 h, the cells were plated into white 96-well plates (PerkinElmer) at a density of 60,000 cells/well.
Cyclic AMP accumulation was measured using a DiscoverX HitHunter® cAMP Assay for Small Molecules (DiscoverX, Fremont, CA). hCB1R CHO cells were seeded at a density of 40,000 cells/well in 96-well white plates and grown overnight at 37 °C, 5% CO2 in a humidified incubator. […] Vehicle concentration was 1% DMSO, 0.1% BSA. Following agonist incubation, 15 µl of cAMP antibody reagent and 60 µl of working cAMP detection solution (containing 19 parts cAMP lysis buffer, 5 parts Substrate Reagent 1, 1 part Substrate Reagent 2 and 25 parts of cAMP Solution D) were added to all wells. Assay plates were incubated in the dark for 1 hr at room temperature, followed by addition of 60 µl cAMP solution A to all wells and incubation for 3 hr at room temperature in the dark. Plates were read using a GloMax Discover plate-reader (Promega, Madison, WI).

CB1R [2] = molecular target: T1, CB1R; set-up: beta-galactosidase enzyme fragment (EFC; ProLink by own knowledge); method as in PMID 16113085, PMID 18029031; conditions: cited from earlier work
CB1R [3] = molecular target: T1, CB1R; set-up: beta-galactosidase enzyme fragment (EFC; ProLink by own knowledge); method as in PMID 16113085, PMID 18029031; conditions: cited from earlier work; remark: listed apart in the source
Male C57Bl/6J mice = assay: Cannabinoid-induced tetrad; type: in vivo; conditions: 10 mg/kg i.p., 30 min prior
Method: Male C57Bl/6J mice (PD > 70) were tested on the cannabinoid-induced tetrad, as previously described.
(i.p.) before testing. The tetrad was performed (1) catalepsy, (2) locomotion, (3) temperature, and (4) analgesia. Catalepsy: time (s) spent immobile with front paws on a plastic rod (1.5cm diameter), at a height of 4.5-cm from the table, before adjusting abnormal posture (either front paws being removed from the bar, or back paws climbing onto bar). Locomotion: horizontal activity (cm) was immediately measured in an open field test, following catalepsy, for 15-min. in 1-min bins. Temperature: rectal temperature (°C) was measured immediately following open-field testing, using a thermometer with rectal probe (Labcorp, Fisher, Waltham, MA). Analgesia: latency (s) to withdraw tail from hot water bath (52 °C), to assess tail-flick antinociception, was completed immediately following temperature readings.

GluN1KD mice [4] = assay: Pre-pulse inhibition in GluN1KD mice; type: in vivo; conditions: ABM300 10 mg/kg, OLA 1 mg/kg i.p.
Method: Pre-Pulse Inhibition (PPI): PPI of the acoustic startle response was measured on day 3, via SR-LAB equipment and software from San Diego Instruments. Accelerometers were calibrated to 700±5 mV and output voltages were amplified and analyzed for voltage changes using SR Analysis (San Diego Instruments, San Diego, CA, USA), and exported as an excel file. Background white noise was maintained at 65dB. PPI was measured in a 30-min test with 80 randomized trials of: (1) 10 trials pulse alone (2) 10 trials pre-pulse alone (for each pre-pulse), (3) 10 trials pre-pulse plus pulse (for each pre-pulse), and (4) 10 trials no pulse. 5 pulse alone trials were performed before and after the 80 trials, totaling 90 trials per run. The pre-pulse (4dB, 8dB, or 16dB) was presented 100ms prior to the startle pulse […]. The inter-stimulus interval (ISI) was randomized between 5 and 20s. Experimental mice were placed in a cylindrical tube on a platform in a soundproof chamber. Mice were allowed to acclimatize in the chamber and to the background noise for 300s, followed by 5 consecutive pulse alone trials, then by 80 randomized trials (as described above) and then 5 consecutive pulse alone trials. Pre-pulse inhibition was measured as a decrease in the amplitude of startle response to a 100dB acoustic startle pulse, following each pre-pulse (4dB, 8dB and 16dB).

GluN1KD mice [5] = assay: Open-field test in GluN1KD mice; conditions: ABM300 10 mg/kg, OLA 1 mg/kg i.p., 30 min before test
Male Sprague Dawley rats = assay: Conditioned avoidance response (CAR); type: in vivo; conditions: rats, ABM300 10 mg/kg, olanzapine 1 mg/kg i.p. daily
Method: Male Sprague Dawley rats (PD>63) were trained on a CAR protocol and responding following drug exposure was determined. […] Animals were trained to learn a house light (CS) as predictive of an avoidable 0.6mA scrambled foot shock (US). Each session consisted of 50 trials and animals avoided >70% of trials on the final acquisition session were tested for CAR during vehicle baseline, drug exposure, and re-emergence. In addition to CAR testing, both temperature and catalepsy were recorded in these animals (measure of potential CB1R agonism). Temperature: recorded on first day of drug exposure, prior to injection and 60-90-min. following drug exposure.

C57Bl/6J mice = type: in vivo; conditions: 10 mg/kg i.p., 30 min before test, compared to vehicle
Text: (i.p.) before testing. The EPM was composed of 4 opaque-white arms (2 opposite arms closed, 2 opposite arms open), arranged in a plus shape, with an open center. The dimensions were as follows; maze elevation (38.7cm), open arm (L:30.5 cm, W:5 cm, H:0 cm), closed arm (L:30.5 cm, W:5 cm, H:15.2 cm) and center (5 cm x 5 cm). The experiment mouse was placed in the center of the maze and allowed to freely explore the maze for 8-min (50lux), while being tracked with an overhead camera. Open and closed arm times were recorded and collected by Biobserve Viewer3 software. The percentage of time spent in the open arms as compared to closed arms and center time was calculated and expressed as a percent of time spent in the open or closed arms of the maze.

T1 sequence (P21554 whole entry): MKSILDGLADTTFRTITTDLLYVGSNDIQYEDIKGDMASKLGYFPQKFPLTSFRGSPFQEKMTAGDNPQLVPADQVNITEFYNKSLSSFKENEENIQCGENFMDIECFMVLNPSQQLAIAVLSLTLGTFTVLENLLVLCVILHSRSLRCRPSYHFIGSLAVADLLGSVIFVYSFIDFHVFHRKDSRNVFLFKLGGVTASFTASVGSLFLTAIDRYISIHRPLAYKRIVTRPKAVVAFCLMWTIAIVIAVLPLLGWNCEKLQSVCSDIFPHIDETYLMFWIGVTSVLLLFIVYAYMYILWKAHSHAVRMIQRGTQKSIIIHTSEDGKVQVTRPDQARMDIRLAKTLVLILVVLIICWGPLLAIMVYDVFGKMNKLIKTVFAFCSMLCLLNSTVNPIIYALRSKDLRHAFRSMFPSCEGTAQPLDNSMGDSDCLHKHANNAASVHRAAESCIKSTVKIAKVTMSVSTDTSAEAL

With `CCCCCCC(C)(C)c1ccc([C@@H]2C[C@H](O)CC[C@H]2CCCO)c(O)c1` [CP55,940, reference compound] the “effect on forskolin-stimulated cAMP accumulation” value (CB1R [1]) was “inhibited”.

For `CCc1c(C(=O)NCCc2ccc(N3CCCCC3)cc2)[nH]c2ccc(Cl)cc12` [Org275], the CB1R agonist-mediated signaling (CB1R [2]) is given as “acts as an inhibitor” and the “Bmax of [3H] CB1R agonist binding” value (CB1R [3]) is given as “increases the Bmax”.

In the case of `CCCCCc1cc(O)c2c(c1)OC(C)(C)[C@@H]1CCC(C)=C[C@@H]21` [THC, Δ^9-tetrahydrocannabinol, reference compound], the “tetrad: catalepsy-induced immobility time” value (Male C57Bl/6J mice) is reported as “produced effects”, the “tetrad: percent inhibition of locomotor activity (15 min)” value (Male C57Bl/6J mice) is reported as “produced effects” and the “tetrad: rectal temperature” value (Male C57Bl/6J mice) is reported as “produced effects”. The “tetrad: tail withdrawal (% MPE)” value (Male C57Bl/6J mice) was “produced effects”.

In the case of `Cc1cc2c(s1)Nc1ccccc1N=C2N1CCN(C)CC1` [olanzapine, reference compound], the acoustic startle response (GluN1KD mice [4]) is reported as “did not respond”, the “sensorimotor gating deficits (PPI; 4, 8, 16 dB)” value (GluN1KD mice [4]) is reported as “did not respond” and the exaggerated stereotypic activity (GluN1KD mice [5]) is reported as “Effects of ABM300 are similar to those seen with olanzapine”. For the same molecule, the “novelty-induced hyperactivity (distance traveled)” value (GluN1KD mice [5]) was “Effects of ABM300 are similar to those seen with olanzapine”, the “rearing behavior (vertical exploration)” value (GluN1KD mice [5]) was “Effects of ABM300 are similar to those seen with olanzapine” and the “escape failures in CAR” value (Male Sprague Dawley rats) was “neither ABM300 nor olanzapine affected escape failures”. For the same molecule, the “escape responding during CAR” value (Male Sprague Dawley rats) was “enhanced escape responding” and the “avoidance behavior in CAR” value (Male Sprague Dawley rats; 30 min prior) was “attenuated avoidance behavior”.

In the case of `Cc1c(C(=O)NN2CCCCC2)nn(-c2ccc(Cl)cc2Cl)c1-c1ccc(Cl)cc1` [rimonabant, reference compound], the “time spent in the open arms (EPM)” value (C57Bl/6J mice) is reported as “significantly reduced”.
